Data: US20130315843A1, “COMPOSITION FOR REDUCTION OF TRPA1 AND TRPV1 SENSATIONS” (priority 2012, published 2013)
Where “and” joins values, the source holds several entries; their conditions need not be identical. Equal values may be shown once. Read-outs that look alike come from different tables or passages of the source.

Legend:
human TRPA1 = human TRPA1 (Homo sapiens, UniProt O75762); experiment: FLIPR intracellular Ca2+ assay, direct (agonist) effect on TRPA1; format: cell-based; design: expressed in transfected cells; settings: for percent hydrogen peroxide activation of TRPA1 compared to control agonist: control 50 μM AITC
human TRPA1, sequence (O75762 whole entry): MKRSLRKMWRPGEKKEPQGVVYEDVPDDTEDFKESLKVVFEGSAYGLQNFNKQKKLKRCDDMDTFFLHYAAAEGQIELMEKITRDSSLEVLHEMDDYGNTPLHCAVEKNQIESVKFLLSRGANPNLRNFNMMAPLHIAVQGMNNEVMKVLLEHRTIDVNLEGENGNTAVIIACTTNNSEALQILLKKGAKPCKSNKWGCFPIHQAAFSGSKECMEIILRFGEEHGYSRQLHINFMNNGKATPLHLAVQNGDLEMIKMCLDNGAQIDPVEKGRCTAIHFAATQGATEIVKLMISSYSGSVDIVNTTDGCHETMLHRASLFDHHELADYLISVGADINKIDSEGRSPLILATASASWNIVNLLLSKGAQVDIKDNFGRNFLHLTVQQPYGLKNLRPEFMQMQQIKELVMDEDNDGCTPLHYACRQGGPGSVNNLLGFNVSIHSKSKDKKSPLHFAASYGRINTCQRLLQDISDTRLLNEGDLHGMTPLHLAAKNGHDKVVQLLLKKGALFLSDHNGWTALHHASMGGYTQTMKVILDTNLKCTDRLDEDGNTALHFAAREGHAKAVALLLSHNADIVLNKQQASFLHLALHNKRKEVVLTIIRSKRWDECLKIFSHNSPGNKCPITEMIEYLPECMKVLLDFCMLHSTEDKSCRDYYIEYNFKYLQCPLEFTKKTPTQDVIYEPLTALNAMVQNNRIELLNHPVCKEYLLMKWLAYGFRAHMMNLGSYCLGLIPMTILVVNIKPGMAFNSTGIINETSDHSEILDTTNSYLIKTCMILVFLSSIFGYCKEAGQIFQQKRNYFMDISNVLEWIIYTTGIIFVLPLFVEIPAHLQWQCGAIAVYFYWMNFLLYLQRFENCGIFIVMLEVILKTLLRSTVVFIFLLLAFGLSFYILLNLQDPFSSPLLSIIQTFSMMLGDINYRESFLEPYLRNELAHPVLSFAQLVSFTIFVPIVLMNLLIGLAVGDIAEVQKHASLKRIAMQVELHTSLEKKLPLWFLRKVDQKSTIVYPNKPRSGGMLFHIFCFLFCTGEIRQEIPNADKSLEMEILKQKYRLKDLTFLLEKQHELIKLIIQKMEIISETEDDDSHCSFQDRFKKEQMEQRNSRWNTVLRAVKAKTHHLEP
Protocol: After centrifugation, a pellet of cells was formed in the bottom of the tube separating them from the supernatant solution.
(§1) The pelleted cells were re-suspended in 10 ml assay buffer and 90 μl aliquots (˜50,000 cells) per well delivered to a 96-well assay plate containing 10 μl of test compounds (1 mM in assay buffer, final concentration 100 μM) or buffer control and incubated at room temperature for 30 minutes.

human TRPV1 [1] = target: T1, human TRPV1 (Homo sapiens, UniProt Q8NER1); experiment: FLIPR Ca2+ assay, reduction of hydrogen peroxide activation of TRPV1; format: cell-based; design: expressed in transfected cells; settings: for Ca++ counts: with compound
T1 sequence (Q8NER1 whole entry): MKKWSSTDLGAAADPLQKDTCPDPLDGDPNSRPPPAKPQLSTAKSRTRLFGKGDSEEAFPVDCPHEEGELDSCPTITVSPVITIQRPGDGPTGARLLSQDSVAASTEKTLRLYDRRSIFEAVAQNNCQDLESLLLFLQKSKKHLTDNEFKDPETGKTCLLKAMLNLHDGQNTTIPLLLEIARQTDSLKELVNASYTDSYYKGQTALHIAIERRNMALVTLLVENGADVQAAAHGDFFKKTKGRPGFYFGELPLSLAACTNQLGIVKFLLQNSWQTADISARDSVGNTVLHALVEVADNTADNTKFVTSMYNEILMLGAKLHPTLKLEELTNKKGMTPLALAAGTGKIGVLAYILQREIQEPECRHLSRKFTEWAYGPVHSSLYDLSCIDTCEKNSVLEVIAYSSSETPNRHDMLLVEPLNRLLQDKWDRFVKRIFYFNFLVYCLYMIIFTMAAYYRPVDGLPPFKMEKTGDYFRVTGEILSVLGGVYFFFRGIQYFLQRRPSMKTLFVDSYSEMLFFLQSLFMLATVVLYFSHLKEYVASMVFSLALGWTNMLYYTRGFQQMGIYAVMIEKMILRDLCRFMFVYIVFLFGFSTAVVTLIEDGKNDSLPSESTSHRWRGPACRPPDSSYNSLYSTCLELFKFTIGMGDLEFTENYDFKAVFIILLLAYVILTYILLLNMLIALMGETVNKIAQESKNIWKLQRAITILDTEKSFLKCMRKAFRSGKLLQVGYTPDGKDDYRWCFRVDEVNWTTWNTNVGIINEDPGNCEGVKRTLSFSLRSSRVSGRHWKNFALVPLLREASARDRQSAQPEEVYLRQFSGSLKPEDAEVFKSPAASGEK

human TRPV1 [2] = target: T1, human TRPV1; experiment: FLIPR Ca2+ assay, reduction of capsaicin activation of TRPV1; format: cell-based; design: expressed in transfected cells; settings: for Ca++ counts: with compound
Protocol: (§2) Cells were detached with addition of 10 ml of PBS (phosphate buffered saline) by hand shaking gently. Cells were transferred to a 50 ml tube and centrifuged at 850 rpm for 3 minutes to remove PBS.
The pelleted cells were re-suspended in 10 ml assay buffer and 90 μl aliquots (˜50,000 cells) per well delivered to a 96-well assay plate containing 10 μl of test compounds ([…]) or buffer control and incubated at room temperature for 30 minutes.

human TRPV1 [3] = target: T1, human TRPV1; settings: for percent hydrogen peroxide activation of TRPV1 compared to control agonist: control 350 nM capsaicin
Protocol: as §2, §1

[4] = Trained sensory panel, burning and numbing sensation after hydrogen peroxide mouthwash; format: in vivo, human; design: key to Burning Sensation: 0 = no sensation, 60 = highest intensity sensation; settings: scale 0-60
Protocol: (§3) For EXAMPLES 6 and 7 sensory evaluation studies of menthol and hydrogen peroxide activity were conducted using a methodology patterned after the techniques described in M. C. Meilgaard, et al., Sensory Evaluation Techniques, 4th Ed. (2007). In one study, a panel of 8-15 trained sensory experts evaluated the menthol or peroxide sensations experienced after brushing with a dentifrice containing the menthol or hydrogen peroxide and the respective TRPA1 or TRPV1 antagonists. Panelists brushed teeth with 1.5 grams of a dentifrice (containing coolant) or control (no coolant) and then expectorated. After brush expectoration, panelists evaluated the burn intensity, assigning a number between 0 (no burning) to 60 ([…]). After rinse expectoration, panelists evaluated burning intensity according to the same 0 to 60 scale. Evaluations were conducted at 5, 15, 30, 45, 60 minute, etc. time points. At each evaluation, panelists were instructed to breathe in through pursed lips and evaluate overall burning sensation. In this test, a numerical score difference from the control of 7.5 indicates user significant differences or definite reduction in burning at the specified time point. Measures between 4.0 to 7.5 indicate a noticeable trend in the specified parameter, which is not statistically significant, but noticeable.
For EXAMPLE 7, a panel of 10 trained sensory experts evaluated the sensory profile experienced after rinsing with 30 grams of a test mouthwash (containing hydrogen peroxide and TRPA1 or TRPV1 antagonist) or control (containing hydrogen peroxide and no TRPA1 or TRPV1 antagonist) for 30 seconds and then expectorated. After expectoration, panelists evaluated the sensorial profile (cooling, warming, burning, numbing, and astringency), assigning a number between 0 (no sensation) to 60 (highest intensity sensation). Evaluations were conducted at 2.5, 5, 10, 20, and 30 minute time points, following expectoration at each evaluation, panelists were instructed to breathe in through pursed lips and evaluate overall burning or numbing sensation. The hydrogen peroxide containing mouthwash formulations are shown below in TABLE 11. The mouthwash samples tested comprised a control having the components listed in TABLE 11 by weight % of the composition or the control formulation plus TRPA1 or TRPV1 antagonist, as shown in TABLE 12. The mouthwashes were made using conventional methods and are shown below with amounts in weight % of total composition.

[5] = Headspace GC reduction of 1-propanethiol by protectant (Michael Acceptor) compounds; settings: for Percent Thiol Reduction vs. Control: 0.1% SLS
Protocol: For EXAMPLES 11 and 12 a 0.1% sodium lauryl sulfate (SLS) aqueous solution was prepared to contain either 1 ppm or 10 ppm of 1-propanethiol. SLS solution was added to the sample and control solutions to assist in solubilization of the more hydrophobic compounds. Control solutions contained surfactant and 1-propanethiol, while sample solutions contained these components plus a protectant compound added at either 0.01% or 0.05%. 100 μL aliquots of control or test solutions were aliquotted into a 22 mL headspace vial, vortexed for 30 seconds, and incubated for 30 minutes at 60 C in an oven. After that period, 1 mL of head space was sampled and injected into an Agilent 7890 gas chromatograph equipped with a sulfur chemiluminescence detector (GC-SCD). Peak areas of the 1-propanethiol control sample (no protectant compound added) were established by triplicate injection of the control sample. The area of the propanethiol peak produced from samples containing selected protectant molecules were then determined and ratioed to the 1-propanethiol control peak area, subtracted from 1, and multiplied by 100 to calculate percent reduction of the thiol peak, thus indicating the effectiveness of each protectant at reducing the level of thiol.
The samples in TABLE 17 were prepared by combining 1 ppm 1-propanethiol with 0.1% sodium lauryl sulfate with 1% of the test compounds. The volatile sulfurs were measured with headspace GC/MS using a SPEME column to capture the volatile sulfur.
The samples in TABLE 18 were prepared by combining either 1 or 10 ppm 1-propanethiol with 0.1% sodium lauryl sulfate with either 0.01% or 0.05% of the test compounds.

[6] = Trained sensory panel, burn sensation after brushing with menthol dentifrice; format: in vivo, human; design: key: 0 = no burning to 60 = highest intensity; 7.5 difference = significant; settings: scale 0-60
Protocol: as §3
For EXAMPLE 6 (TABLES 8 and 9), a panel of 14 trained sensory experts evaluated the sensory profile experienced after brushing with the dentifrice sample formulations shown in TABLES 6 and 7 containing high levels of menthol followed by rinsing with water. Panelists brushed teeth with 1.5 grams of a test dentifrice (containing high menthol levels) or control (no menthol) for 36 seconds and then expectorated. The dentifrice sample formulations (control and high L-Menthol) are shown below in TABLE 6 (with peppermint flavor) and TABLE 7 (with spearmint flavor). The dentifrices were made using conventional methods and are shown below with component amounts in weight % of total composition. […]
For TABLE 10 all the Samples had the same formulation as Sample E from TABLE 6, except for the Control which lacked menthol. After brushing or mouthwash expectoration, panelists evaluated the burning sensation, assigning a number between 0 (no sensation) to 60 (highest intensity sensation). Evaluations were conducted at 5, 10, 20 and 30 minute time points, following expectoration. At each evaluation, panelists were instructed to breathe in through pursed lips and evaluate overall sensation. In this test, a numerical score of 7.5 indicates a significant user noticeable sensation. Differences less than 7.5, but greater than 5.0 indicate the trending of the data on a specific attribute.

[7] = 2 Min 30 SEC After Expectoration, H2O2 mouthwash, antagonist levels as E48
[8] = 5 Min After Expectoration, H2O2 mouthwash, antagonist levels as E48
[9] = 10 Min After Expectoration, H2O2 mouthwash, antagonist levels as E48
[10] = 20 Min After Expectoration, H2O2 mouthwash, antagonist levels as E48
[11] = 30 Min After Expectoration, H2O2 mouthwash, antagonist levels as E48
[12] = After Expectoration, H2O2 mouthwash, antagonist levels as E48
[13] = antagonist 400 μM against 500 μM hydrogen peroxide

Question: For CC(=O)OC1CC2CCC1(C)C2(C)C (single isomer, unassigned; (-)) [(−)-Bornyl Acetate], which “effect on TRPA1 receptor, in words (agonist / enhancer)” value (from here on “effect … (agonist / enhancer)”) (human TRPA1) is on record?
Answer: TRPA1 agonists

Question: And the “reduction of hydrogen peroxide activation of TRPV1, in words” value (from here on “reduction … of TRPV1, in words”) (human TRPV1 [1])?
Answer: reduce hydrogen peroxide activation of TRPV1

Question: What about the inhibition at 100 µM (human TRPV1 [1]; antagonist 100 μM against 500 μM hydrogen peroxide) of the same compound?
Answer: 53%

Question: And the “Ca++ counts” value (human TRPV1 [1]; Dose 1000, 500 uM H2O2)?
Answer: 877

Question: And the “Ca++ counts” value (human TRPV1 [2]; Dose 1000, 350 nM Capsaicin)?
Answer: 13976

Question: Which results are given for C=CCN=C=S [AITC, allyl isothiocyanate]?
Answer: Average Ca++ Counts (human TRPA1; AITC 50 μM alone, each Set 1-4): 8322.5 Counts and 14138.2 Counts and 15213.0 Counts and 11209.0 Counts; Ca2+ Count, TRPA1 (human TRPA1; control agonist AITC 50 μM): 12219 Count

Question: With COc1cc(CNC(=O)CCCC/C=C/C(C)C)ccc1O [Capsaicin] as the compound, how does the “Ca2+ Count, TRPV1” value (human TRPV1 [3]; control agonist Capsaicin 350 nM) read?
Answer: 16204 Count

Question: What does the source list for CCCCCC1=C(C)CCC1=O [Dihydrojasmone]?
Answer: Burning Sensation [4, 7]: 13.1; Numbing Sensation [4, 7]: 6.9; Burning Sensation [4, 8]: 8.9; Numbing Sensation [4, 8]: 6.3; Burning Sensation [4, 9]: 2.8; Numbing Sensation [4, 9]: 0.8; Burning Sensation [4, 10]: 0.8; Numbing Sensation [4, 10]: 0.0; Burning Sensation [4, 11]: 0.6; Numbing Sensation [4, 11]: 0.0; Burning Sensation [4, 12]: 16.9; Numbing Sensation [4, 12]: 6.9; Burning Sensation ([4]; Initial in Mouth, hydrogen peroxide mouthwash (TABLE 11) with Apritone 200 ppm, Isobornyl Isobutyrate 100 ppm, Dihydrojasmone 6 ppm as named, 10 panelists): 12.5; % inhibition of TRPV1 activation by 500 uM H2O2 (human TRPV1 [1]; Dose 4000): 98%; % Reduction of Hydrogen Peroxide TRPV1 Activation (human TRPV1 [1]; [13]): 98%; Ca++ counts (human TRPV1 [1]; Dose 4000, 500 uM H2O2): 38; % inhibition of TRPV1 activation by 350 nM Capsaicin (human TRPV1 [2]; Dose 4000): 4%; Ca++ counts (human TRPV1 [2]; Dose 4000, 350 nM Capsaicin): 11397; Percent Thiol Reduction vs. Control ([5]; 1 ppm 1-propanethiol, 0.01% test compound): 79.0%; Percent Thiol Reduction vs. Control ([5]; 1 ppm 1-propanethiol, 0.05% test compound): 92.1%; % Thiol Reduction ([5]; 1 ppm 1-propanethiol, 0.1% sodium lauryl sulfate, 1% test compound, headspace): significantly or completely reduced sulfur production; thiol reduction, comparison in words ([5]; 1 ppm 1-propanethiol, compound 0.01% and 0.05%): better reduction in thiol than delta damascone; Percent Thiol Reduction vs. Control ([5]; 10 ppm 1-propanethiol, 0.01% test compound): 41.3%; Percent Thiol Reduction vs. Control ([5]; 10 ppm 1-propanethiol, 0.05% test compound): 66.7%; thiol reduction, comparison in words ([5]; 10 ppm 1-propanethiol, compound 0.05%): close to delta damascone's thiol reduction; Burning Sensation Rating ([6]; 5 Min After Rinse, dentifrice Sample E (1% menthol) with antagonist levels as E42): 11.3; Burning Sensation Rating ([6]; 10 Min After Rinse, dentifrice Sample E (1% menthol) with antagonist levels as E42): 2.5; Burning Sensation Rating ([6]; 20 Min After Rinse, dentifrice Sample E (1% menthol) with antagonist levels as E42): 0.0; Burning Sensation Rating ([6]; 30 Min After Rinse, dentifrice Sample E (1% menthol) with antagonist levels as E42): 0.0; Burning Sensation Rating ([6]; After Expectoration, dentifrice Sample E (1% added menthol) with Apritone 200 ppm, Dihydrojasmone 6 ppm, Isobornyl Isobutyrate 100 ppm, α-heptyl-γ-valerolactone 100 ppm as named): 24.1; Burning Sensation Rating ([6]; After Rinse, dentifrice Sample E (1% menthol) with antagonist levels as E42): 21.3

Question: With OO [H2O2, hydrogen peroxide] as the compound, how does the “percent hydrogen peroxide activation of TRPA1 compared to control agonist” value (human TRPA1; H2O2 1 μM) read?
Answer: 1.4%

Question: And the “percent hydrogen peroxide activation of TRPA1 compared to control agonist” value (human TRPA1; H2O2 10 μM)?
Answer: 9.6%

Question: And the “percent hydrogen peroxide activation of TRPA1 compared to control agonist” value (human TRPA1; H2O2 100 μM)?
Answer: 91.4%

Question: And the “Average Ca++ Counts” value (human TRPA1; H2O2 200 μM alone, control of each Set 1-4)?
Answer: 5881.5 Counts and 8721.8 Counts and 10592.2 Counts and 7043.6 Counts

Question: What about the “percent hydrogen peroxide activation of TRPA1 compared to control agonist” value (human TRPA1; H2O2 200 μM) of the same compound?
Answer: 111.7%

Question: And the “percent hydrogen peroxide activation of TRPA1 compared to control agonist” value (human TRPA1; H2O2 500 μM)?
Answer: 129.1%

Question: What about the “percent hydrogen peroxide activation of TRPA1 compared to control agonist” value (human TRPA1; H2O2 1 mM) of the same compound?
Answer: 123.4%

Question: What about the “percent hydrogen peroxide activation of TRPA1 compared to control agonist” value (human TRPA1; H2O2 10 mM) of the same compound?
Answer: 101.3%

Question: What about the “percent hydrogen peroxide activation of TRPA1 compared to control agonist” value (human TRPA1; H2O2 100 mM) of the same compound?
Answer: 296.7%

Question: And the “percent hydrogen peroxide activation of TRPV1 compared to control agonist” value (human TRPV1 [3]; H2O2 1 μM)?
Answer: 1.51%

Question: What about the “percent hydrogen peroxide activation of TRPV1 compared to control agonist” value (human TRPV1 [3]; H2O2 10 μM) of the same compound?
Answer: 3.10%

Question: And the “percent hydrogen peroxide activation of TRPV1 compared to control agonist” value (human TRPV1 [3]; H2O2 100 μM)?
Answer: 17.45%

Question: And the “percent hydrogen peroxide activation of TRPV1 compared to control agonist” value (human TRPV1 [3]; H2O2 200 μM)?
Answer: 21.18%

Question: What about the “percent hydrogen peroxide activation of TRPV1 compared to control agonist” value (human TRPV1 [3]; H2O2 500 μM) of the same compound?
Answer: 30.21%

Question: And the “percent hydrogen peroxide activation of TRPV1 compared to control agonist” value (human TRPV1 [3]; H2O2 1 mM)?
Answer: 41.13%

Question: And the “percent hydrogen peroxide activation of TRPV1 compared to control agonist” value (human TRPV1 [3]; H2O2 10 mM)?
Answer: 62.81%

Question: What about the “percent hydrogen peroxide activation of TRPV1 compared to control agonist” value (human TRPV1 [3]; H2O2 100 mM) of the same compound?
Answer: 209.29%

Question: Which “effect … (agonist / enhancer)” value (human TRPA1) does the source give for CCC(=O)OCCOc1ccccc1 [Phenoxyethyl Propionate] here?
Answer: TRPA1 agonists

Question: What about the “reduction … of TRPV1, in words” value (human TRPV1 [1]) of the same compound?
Answer: reduce hydrogen peroxide activation of TRPV1

Question: What about the inhibition at 400 µM (human TRPV1 [1]; [13]) of the same compound?
Answer: 60%

Question: And the “Ca++ counts” value (human TRPV1 [1]; Dose 4000, 500 uM H2O2)?
Answer: 737

Question: And the “Ca++ counts” value (human TRPV1 [2]; Dose 4000, 350 nM Capsaicin)?
Answer: 10922

Question: For CC(C)C(=O)OCc1ccc2c(c1)OCO2 [Piperonyl Isobutyrate], which “effect … (agonist / enhancer)” value (human TRPA1) is on record?
Answer: enhancer of TRPA1

Question: What about the “reduction … of TRPV1, in words” value (human TRPV1 [1]) of the same compound?
Answer: reduces hydrogen peroxide activation of TRPV1

Question: And the inhibition at 400 µM (human TRPV1 [1]; [13])?
Answer: 63%

Question: And the “Ca++ counts” value (human TRPV1 [1]; Dose 4000, 500 uM H2O2)?
Answer: 682

Question: And the “Ca++ counts” value (human TRPV1 [2]; Dose 4000, 350 nM Capsaicin)?
Answer: 10804
